Experimental findings from patent US20220402900A1, “1,2,4-OXADIAZOL-5-ONE DERIVATIVES FOR THE TREATMENT OF CANCER” (Basilea Pharmaceutica International AG, priority 2019, published 2022) are described below.

Test [1] relates to NCI-H226 xenografts. Briefly: NCI-H226 tumor xenograft efficacy study. In kind it is in vivo. The note with it: day 62, NCI-H226 xenografts in BALB/c nude mice. How it is done:
Female BALB/c nude mice (GemPharmatech Co., Ltd) were subcutaneously inoculated with 10×10^6 NCI-H226 tumor cells (ATCC, CRL-5826) in 0.2 mL of PBS mixed with matrigel (1:1) (Corning). Randomization into six groups (n=8 animals per group) was performed when the mean tumor size reached approximately 150 (100-200) mm^3, after which drug treatments were started. Animals were dosed daily orally at the specified concentrations using an oral-gavage needle. The dosing volume was 10 mL/kg per mouse, with a volume adjusted to the mouse body weight. The vehicle control (water containing 0.5% hydroxypropyl methyl cellulose (Sigma-Aldrich, #H3785) and 0.5% Tween 80 (Sigma-Aldrich, #P1754) was administered in the same way. Tumor volumes were measured twice weekly in two dimensions using a caliper, and the volume was expressed in mm^3 using the formula “V=(L×W^2)/2”, where V is the tumor volume, L is the tumor length (the longest tumor dimension) and W is the tumor width (the longest tumor dimension perpendicular to L).
Animal protocols were reviewed and approved by the Institutional Animal Care and Use Committee (IACUC) at CrownBio. During the study, the care and use of animals was conducted in accordance with the regulations of the Association for Assessment and Accreditation of Laboratory Animal Care (AAALAC).

Test [2] has as its system TEAD reporter gene activity. Briefly: TEAD reporter gene assay (MCF7 TEAD reporter cell line). Type of test: cell-based. The note with it: Homo sapiens; TEAD luciferase reporter in MCF7 cells, 24 hours; read-out: IC50 TEAD RGA (converted). The text has this: A TEAD reporter cell line was purchased from BPS Bioscience (cat. no. 60618). It contains the firefly luciferase gene under control of TEAD responsive elements stably integrated into the human breast cancer MCF7 cells. In proliferating cells, a basal level of unphosphorylated YAP/TAZ resides in the nucleus and drives the TEAD-dependent expression of the luciferase reporter. The cells were cultivated as recommended by the supplier. Inhibition of TEAD reporter gene activity by experimental compounds was measured using white, clear-bottom, 96 well cell culture plates (Greiner Bio-One, cat. no. 655098). The cells were seeded at a density of 20,000 cells per well in 100 μL growth medium and the plates were incubated overnight at 37° C. with 5% CO2 prior to treatment. Experimental compounds were serially diluted in DMSO to 200× the desired final concentrations. 0.5 μL aliquots of DMSO or the test samples were then mixed into the wells and the cells were further incubated for 24 hours. Luminescence was then measured on a Synergy 4 reader (BioTek) using the ONE-Glo Luciferase Assay System (Promega, cat. no. E6120) according to the manufacturer's instructions. Relative inhibition values were calculated by normalizing the raw data using DMSO-treated cells (0% inhibition) and wells devoid of cells (100% inhibition). IC50 values were calculated by fitting concentration-response data to a sigmoidal 4-parameter logistic model.

The test system of test [3] is TEAD-dependent PD marker CTGF. Briefly: MSTO-211H tumor xenograft pharmacodynamic (PD) study. Type of test: in vivo, mice. How it is done: Female CB. 17 SCID mice (Charles River) were subcutaneously inoculated with 5×10^6 MSTO-211H tumor cells (ATCC, CRL-2081) in 0.1 mL of PBS mixed with matrigel (1:1) (BD Biosciences). Randomization into two groups was performed when the mean tumor size reached approximately 300-400 mm^3, after which drug treatments were started.
Animals were dosed daily orally at the specified concentrations of the compound of Example 2 or the compound of Example 11 using an oral-gavage needle. The dosing volume was 10 mL/kg per mouse, with a volume adjusted to the mouse body weight. The vehicle control (water containing 0.5% hydroxypropyl methyl cellulose (Sigma-Aldrich, #H9262) and 0.5% Tween 80 (Sigma-Aldrich, #P1754)) was administered in the same way.
PD marker analysis was performed on tumors that were collected from animals 3 hours after the last dose was given. […] The tumor protein lysates were prepared and analyzed using standard Western blot procedures. […] For quantitative PCR (qPCR) analyses, RNA was converted into cDNA following manufacturer's instructions (SuperScript™ III First-Strand Synthesis for RT-PCR, Invitrogen, #18080-051). […] The increase in fluorescence was analyzed with the instrument-specific software (Roche, LightCycler® 480 II), and a mean quantity was calculated from duplicate or triplicate PCRs for each sample using the ΔΔCt method.

The target in test [4] is T1, human TEAD2 (amino acids 217-447) (Homo sapiens, UniProt Q15562).
T1 construct: human TEAD2 (amino acids 217-447); His-tag (N); purchased Proteros biostructures PR-0365; host or cells: E. coli
T1 sequence (Q15562 217-447): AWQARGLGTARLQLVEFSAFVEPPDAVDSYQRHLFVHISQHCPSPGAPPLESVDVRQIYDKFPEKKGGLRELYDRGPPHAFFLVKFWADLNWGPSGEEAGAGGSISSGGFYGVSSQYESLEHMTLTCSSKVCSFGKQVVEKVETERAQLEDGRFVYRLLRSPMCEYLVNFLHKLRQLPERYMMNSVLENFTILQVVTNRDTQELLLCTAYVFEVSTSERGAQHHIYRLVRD
As to the kind of experiment: Thermal shift assay (TSA). Type of test: binding. As to conditions: 3 μM recombinant TEAD2, compound 7 μM, shift vs DMSO control. How it is done: The thermal shift assay (TSA) was utilized to characterize target engagement in vitro based on ligand-dependent thermal stabilization of the protein. N-terminally His-tagged human TEAD2 (amino acids 217-447) expressed and purified from E. coli was purchased from Proteros biostructures (cat no. PR-0365). The melting reactions were performed in white, 96 well qPCR plates (Roche Diagnostics, cat. no. 04 729 692 001) in 20 mM HEPES pH 7, 100 mM NaCl in the presence of 4×SYPRO orange (Sigma, cat. no. S5692). Each well contained 3 μM recombinant TEAD2 and either DMSO (control) or experimental compounds at a final concentration of 7 μM. The total volume was 20 μL and the final DMSO concentration was 1%. The plate was sealed and analyzed in a LightCycler 480 II (Roche Diagnostics) by continuously reading the fluorescence using the 465-580 nm filter set while heating from 25° C. to 95° C. using a linear gradient of 1° C./min. Melting temperatures were determined by numerical differentiation using the LightCycler Thermal Shift Analysis software (Roche Diagnostics). The shifts in melting temperature caused by experimental compounds compared to the control are expressed as ΔTm (Table 2).

As to `O=c1[nH]c(-c2nccnc2Nc2ccc(C(F)(F)F)cc2)no1` [Example 2, 3-[3-[4-(trifluoromethyl)anilino]pyrazin-2-yl]-4H-1,2,4-oxadiazol-5-one], the “final ΔT/C” value in test [1] (50 mg/kg po qd) stood at 0.27; in test [1] (125 mg/kg po qd), 0.13; in test [1] (250 mg/kg po qd), 0.017. For the same compound, the IC50 in test [2] was 41 nM. The “decrease of CTGF mRNA to (normalized to actin mRNA)” value in test [3] (250 mg/kg po qd×8, MSTO-211H tumors isolated 3 hours after last dose) amounted to 28%. In test [4], the ΔTm at 7 µM stood at 10.6 °C.
Regarding `COc1ccnc(Nc2ccc(C(F)(F)F)cc2)c1-c1noc(=O)[nH]1` [Example 11, 3-[4-methoxy-2-[4-(trifluoromethyl)anilino]-3-pyridyl]-4H-1,2,4-oxadiazol-5-one], the IC50 in test [2] was 39 nM. Further, in test [3] (250 mg/kg po qd×5, MSTO-211H tumors isolated 3 hours after last dose), the “decrease of CTGF mRNA to (normalized to actin mRNA)” value was 32%. In addition, the ΔTm at 7 µM in test [4] came out at 6.7 °C.
For the compound `CS(=O)(=O)NCCOc1ccnc(Nc2ccc(C(F)(F)F)cc2)c1-c1noc(=O)[nH]1` [Example 57, N-[2-[[3-(5-oxo-4H-1,2,4-oxadiazol-3-yl)-2-[4-(trifluoromethyl)anilino]-4-pyridyl]oxy]ethyl]methanesulfonamide], the IC50 in test [2] was 388 nM. Also, in test [4], the ΔTm at 7 µM was found to be 4.1 °C.
In the same order, the values of `O=C(O)COc1ccnc(Nc2ccc(C(F)(F)F)cc2)c1-c1noc(=O)[nH]1` [Example 58, 2-[[3-(5-oxo-4H-1,2,4-oxadiazol-3-yl)-2-[4-(trifluoromethyl)anilino]-4-pyridyl]oxy]acetic acid] are 13700 nM and 3 °C.
In the same order, the values of `NC(=O)COc1ccnc(Nc2ccc(C(F)(F)F)cc2)c1-c1noc(=O)[nH]1` [Example 59, 2-[[3-(5-oxo-4H-1,2,4-oxadiazol-3-yl)-2-[4-(trifluoromethyl)anilino]-4-pyridyl]oxy]acetamide] are 2750 nM and 6.7 °C.
The like results for `O=c1[nH]c(-c2c(OCCN3CCOCC3)ccnc2Nc2ccc(C(F)(F)F)cc2)no1` [Example 60, 3-[4-(2-morpholinoethoxy)-2-[4-(trifluoromethyl)anilino]-3-pyridyl]-4H-1,2,4-oxadiazol-5-one] were, in that order, 465 nM and 1.3 °C.
For `O=c1[nH]c(-c2c(OCCc3ccccn3)ccnc2Nc2ccc(C(F)(F)F)cc2)no1` [Example 61, 3-[4-[2-(2-pyridyl)ethoxy]-2-[4-(trifluoromethyl)anilino]-3-pyridyl]-4H-1,2,4-oxadiazol-5-one], the IC50 in test [2] was 147 nM. The ΔTm at 7 µM in test [4] stood at 2.9 °C.
In the same order, the values of `COCCOc1ccnc(Nc2ccc(C(F)(F)F)cc2)c1-c1noc(=O)[nH]1` [Example 62, 3-[4-(2-methoxyethoxy)-2-[4-(trifluoromethyl)anilino]-3-pyridyl]-4H-1,2,4-oxadiazol-5-one] are 61 nM and 5.5 °C.
The like results for `CC1(COc2ccnc(Nc3ccc(C(F)(F)F)cc3)c2-c2noc(=O)[nH]2)CC1` [Example 63, 3-[4-[(1-methylcyclopropyl)methoxy]-2-[4-(trifluoromethyl)anilino]-3-pyridyl]-4H-1,2,4-oxadiazol-5-one] were, in that order, 1550 nM and 3.4 °C.
The like results for `O=c1[nH]c(-c2c(OC3CCOCC3)ccnc2Nc2ccc(C(F)(F)F)cc2)no1` [Example 64, 3-[4-tetrahydropyran-4-yloxy-2-[4-(trifluoromethyl)anilino]-3-pyridyl]-4H-1,2,4-oxadiazol-5-one] were, in that order, 268 nM and 4.2 °C.
Turning to `O=c1[nH]c(-c2c(OCCF)ccnc2Nc2ccc(C(F)(F)F)cc2)no1` [Example 65, 3-[4-(2-fluoroethoxy)-2-[4-(trifluoromethyl)anilino]-3-pyridyl]-4H-1,2,4-oxadiazol-5-one], in test [2], the 50% inhibitory concentration (IC50) is 81 nM. In test [4], the ΔTm at 7 µM stood at 6 °C.
The like results for `COC(C)(C)CCOc1ccnc(Nc2ccc(C(F)(F)F)cc2)c1-c1noc(=O)[nH]1` [Example 66, 3-[4-(3-methoxy-3-methyl-butoxy)-2-[4-(trifluoromethyl)anilino]-3-pyridyl]-4H-1,2,4-oxadiazol-5-one] were, in that order, 1470 nM and 0.4 °C.
With `O=c1[nH]c(-c2c(OC3CCNCC3)ccnc2Nc2ccc(C(F)(F)F)cc2)no1` [Example 67, 3-[4-(4-piperidyloxy)-2-[4-(trifluoromethyl)anilino]-3-pyridyl]-4H-1,2,4-oxadiazol-5-one], the half-maximal inhibitory concentration (IC50) in test [2] is 10700 nM. The ΔTm at 7 µM in test [4] amounted to 7.1 °C.
